From US20250032464A1, “SOLID DISPERSION, PREPARATION METHOD THEREFOR, AND SOLID FORMULATION CONTAINING SAME” (HAIHE BIOPHARMA CO., LTD., priority 2021, published 2025)
Read-outs that look alike come from different tables or passages of the source.

Key:
Caco-2 cell model = conditions: for The ratio of apparent permeability: human
[1] = for Equilibrium solubility, 24 h: 37° C.
in vitro = conditions: human, Caco-2
P-gp = test: in vitro; conditions: human, Caco-2

permeability characteristic (Caco-2 cell model; Caco-2)	The ratio of apparent permeability (Caco-2 cell model; Caco-2, 2 μM)	The ratio of apparent permeability (Caco-2 cell model; Caco-2, 10 μM)	The ratio of apparent permeability (Caco-2 cell model; Caco-2, 50 μM)	in vivo bioavailability (after direct administration)	bioavailability (micronized compound A)	Equilibrium solubility, 24 h ([1]; Water)	solubility ([1]; media with different pH values)	Equilibrium solubility, 24 h ([1]; pH 1.2 simulated gastric fluid)	Equilibrium solubility, 24 h ([1]; pH 4.5 phosphate buffer solution)	Equilibrium solubility, 24 h ([1]; pH 6.8 simulated intestinal fluid)	Papp A→B (in vitro)	Papp B→A (in vitro)	efflux ratio (P-gp)	Structure (SMILES)
high permeability characteristic	1.21	2.27	0.64	less than 1%	3.3%	0.1 µg/mL	less than 1 μg/mL	0.5 µg/mL	0.1 µg/mL	0.1 µg/mL				Cn1cc(-c2cnc3cnn(S(=O)(=O)c4cnc5ccc(-c6cnn(C)c6)cn45)c3c2)cn1 [Compound A, 1-{(6-[(1-methyl)-4-pyrazolyl]-imidazo[1,2-a]pyridine)-3-sulfonyl}-6-[(1-methyl)-4-pyrazolyl]-1-hydro-pyrazolo[4,3-b]pyridine]
											0.08 ± 0.01 ×10⁻⁶ cm/s	12.5 ± 0.9 ×10⁻⁶ cm/s	165	C[C@H]1O[C@@H](O[C@H]2[C@@H](O)C[C@H](O[C@H]3[C@@H](O)C[C@H](O[C@H]4CC[C@@]5(C)[C@H](CC[C@@H]6[C@@H]5C[C@@H](O)[C@]5(C)[C@@H](C7=CC(=O)OC7)CC[C@]65O)C4)O[C@@H]3C)O[C@@H]2C)C[C@H](O)[C@@H]1O [Digoxin, digoxin]
											13.7 ± 0.67 ×10⁻⁶ cm/s	17 ± 0.32 ×10⁻⁶ cm/s	1.24	CC(C)NCC(O)COc1cccc2ccccc12 (centres unmarked) [Propranolol, propranolol]
